SMILES strings stand for the structures.

Test [1] deals with T1, Phospholipase A2, membrane associated (Homo sapiens) (UniProt P14555).
T1 sequence (whole entry): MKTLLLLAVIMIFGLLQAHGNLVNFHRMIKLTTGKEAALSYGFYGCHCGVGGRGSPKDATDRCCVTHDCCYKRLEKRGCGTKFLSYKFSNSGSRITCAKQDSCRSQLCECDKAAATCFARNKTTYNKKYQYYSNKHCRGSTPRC
Put plainly: Inhibition of human group 2A secreted phospholipase A2 at 1 uM by fluorescence assay.

Test [2] has as its target T2, Phospholipase A2, membrane associated (Mus musculus) (UniProt P31482).
T2 sequence (whole entry): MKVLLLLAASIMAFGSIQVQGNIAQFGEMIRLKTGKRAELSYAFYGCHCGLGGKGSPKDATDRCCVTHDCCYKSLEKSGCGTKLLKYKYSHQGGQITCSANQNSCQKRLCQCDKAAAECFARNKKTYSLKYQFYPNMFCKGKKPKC
Put plainly: Inhibition of mouse group 2A secreted phospholipase A2 at 1 uM by fluorescence assay.

The species named for test [3] is Homo sapiens. Put plainly: Selectivity ratio of IC50 for human group 5 secreted phospholipase A2 to human group 2A secreted phospholipase A2.
Test [4] addresses T3, Phospholipase A2, membrane associated (Mus musculus, UniProt P31482).
T3 sequence (P31482 whole entry): T2 sequence (whole entry)
The experiment in a line: Inhibition of mouse group 2A secreted phospholipase A2 by fluorescence assay.

Test [5] addresses T4, Phospholipase A2 group V (Mus musculus) (UniProt P97391).
T4 sequence (whole entry): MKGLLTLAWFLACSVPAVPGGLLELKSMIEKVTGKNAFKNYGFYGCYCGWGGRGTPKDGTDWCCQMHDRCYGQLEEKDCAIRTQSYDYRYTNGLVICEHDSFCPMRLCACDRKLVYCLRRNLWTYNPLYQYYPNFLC
Put plainly: Inhibition of mouse group 5 secreted phospholipase A2 assessed as remaining activity at 1000 nM by fluorescence assay.

In test [6] the target is T5, Group 10 secretory phospholipase A2 (Homo sapiens) (UniProt O15496).
T5 sequence (whole entry): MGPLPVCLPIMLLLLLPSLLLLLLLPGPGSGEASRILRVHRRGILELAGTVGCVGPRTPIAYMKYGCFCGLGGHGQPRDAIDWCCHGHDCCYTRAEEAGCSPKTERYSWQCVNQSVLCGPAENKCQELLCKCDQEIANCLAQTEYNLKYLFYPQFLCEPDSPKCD
Put plainly: Inhibition of human group 10 secreted phospholipase A2 assessed as remaining activity at 1000 nM by fluorescence assay.

For test [7], the target named is T6, Phospholipase A2 group V (Homo sapiens, UniProt P39877).
T6 sequence (P39877 whole entry): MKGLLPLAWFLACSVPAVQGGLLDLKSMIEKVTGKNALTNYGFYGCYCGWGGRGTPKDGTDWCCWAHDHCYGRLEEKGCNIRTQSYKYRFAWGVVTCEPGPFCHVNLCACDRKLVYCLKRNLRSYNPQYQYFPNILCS
The experiment in a line: Inhibition of human group 5 secreted phospholipase A2 by fluorescence assay.

The target in test [8] is T7, Phospholipase A2, membrane associated (Homo sapiens, UniProt P14555).
T7 sequence (P14555 whole entry): T1 sequence (whole entry)
The experiment in a line: Inhibition of human group 2A secreted phospholipase A2 by fluorescence assay.

In test [9] the target is T8, Group IID secretory phospholipase A2 (Mus musculus) (UniProt Q9WVF6).
T8 sequence (whole entry): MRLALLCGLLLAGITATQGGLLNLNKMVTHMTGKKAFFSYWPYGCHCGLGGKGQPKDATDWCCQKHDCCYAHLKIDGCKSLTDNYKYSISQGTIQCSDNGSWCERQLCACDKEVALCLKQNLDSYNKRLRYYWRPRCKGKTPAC
Put plainly: Inhibition of mouse 2D secreted phospholipase A2 assessed as remaining activity at 1000 nM by fluorescence assay.

Test [10] addresses T1, Phospholipase A2, membrane associated (Homo sapiens). The experiment in a line: Potency index, ratio of GK126 IC50 to compound IC50 for human group 2A secreted phospholipase A2.
In test [11] the target is T2, Phospholipase A2, membrane associated (Mus musculus). The experiment in a line: Potency index, ratio of GK126 IC50 to compound IC50 for mouse group 2A secreted phospholipase A2.
Test [12] has as its target T9, Group IIF secretory phospholipase A2 (Homo sapiens) (UniProt Q9BZM2).
T9 sequence (whole entry): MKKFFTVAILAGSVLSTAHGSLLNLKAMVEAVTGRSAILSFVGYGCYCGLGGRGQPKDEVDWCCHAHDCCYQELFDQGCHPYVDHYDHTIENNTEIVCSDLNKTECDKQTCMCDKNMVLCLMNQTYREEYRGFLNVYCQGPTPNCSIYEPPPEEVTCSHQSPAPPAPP
The experiment in a line: Inhibition of human group 2F secreted phospholipase A2 assessed as remaining activity at 1000 nM by fluorescence assay.

The target in test [13] is T10, Group IIE secretory phospholipase A2 (Homo sapiens) (UniProt Q9NZK7).
T10 sequence (whole entry): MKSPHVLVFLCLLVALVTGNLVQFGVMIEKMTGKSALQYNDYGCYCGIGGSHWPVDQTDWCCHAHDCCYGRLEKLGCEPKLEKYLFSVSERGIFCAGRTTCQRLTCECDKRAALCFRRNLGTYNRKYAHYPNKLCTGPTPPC
The experiment in a line: Inhibition of human group 2E secreted phospholipase A2 assessed as remaining activity at 1000 nM by fluorescence assay.

Test [14] concerns the target T11, Group 10 secretory phospholipase A2 (Mus musculus) (UniProt Q9QXX3).
T11 sequence (whole entry): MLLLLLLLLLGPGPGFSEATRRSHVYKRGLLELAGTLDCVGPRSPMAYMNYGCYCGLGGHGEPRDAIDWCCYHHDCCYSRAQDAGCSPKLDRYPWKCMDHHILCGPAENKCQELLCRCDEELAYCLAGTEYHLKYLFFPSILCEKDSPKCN
The experiment in a line: Inhibition of mouse group 10 secreted phospholipase A2 assessed as remaining activity at 1000 nM by fluorescence assay.

Test [15] concerns the target Phospholipase A2 (Homo sapiens) (UniProt P04054). Put plainly: Inhibition of human group 1B secreted phospholipase A2 assessed as remaining activity at 1000 nM by fluorescence assay.
The target of test [16] is T12, Phospholipase A2 group V (Homo sapiens) (UniProt P39877).
T12 sequence (whole entry): T6 sequence (P39877 whole entry)
Put plainly: Inhibition of human group 5 secreted phospholipase A2 at 10 uM by fluorescence assay.

Test [17] deals with T5, Group 10 secretory phospholipase A2 (Homo sapiens). Put plainly: Inhibition of human group 10 secreted phospholipase A2 at 10 uM by fluorescence assay.
The target in test [18] is Phospholipase A2 (Homo sapiens) (UniProt P04054). The experiment in a line: Inhibition of human group 1B secreted phospholipase A2 at 10 uM by fluorescence assay.
Test [19] addresses T1, Phospholipase A2, membrane associated (Homo sapiens). The experiment in a line: Inhibition of human group 2A secreted phospholipase A2 at 10 uM by fluorescence assay.

Chain of Phospholipase A2 (Homo sapiens) (P04054 23-148 limits assumed): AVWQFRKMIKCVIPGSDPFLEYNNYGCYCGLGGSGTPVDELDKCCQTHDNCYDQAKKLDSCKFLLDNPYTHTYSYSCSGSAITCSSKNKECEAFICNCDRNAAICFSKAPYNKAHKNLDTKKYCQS

With `CCCCCCCCCCCCCCC(=O)C(=O)N1CCC[C@H]1C(=O)O`, the inhibition in test [1] and in [2] was below 25% throughout.

For the compound `CCCCCCCCCCCCCCC(=O)C(=O)N[C@H](C(=O)O)C(C)(C)C`, the inhibition in [1] and in test [2] was below 25% throughout.

Take `CCCCCCCCCCCCCCC(=O)C(=O)N[C@@H](CCC(=O)O)C(=O)OCC`: the inhibition in [1] and in [2] was below 25% throughout.

On to `CCCCCCCCCCCCCCC(=O)C(=O)N[C@@H](CCC(=O)O)C(=O)O`, for which the inhibition in [1] and in test [2] was below 25% throughout.

For `CCCCCCCCCCCCCCC(=O)C(=O)N[C@H](C(=O)O)C(C)C`, the figures for the Ratio IC50 in [3], in test [10] and in test [11] were 10, 2 and 2, respectively. Also, the IC50 (usually the concentration that inhibits the measured activity by half) in test [4] was determined as 68 nM; in [7] it was 1200 nM; in [8], 143 nM. The Activity turned out to be 90% in test [5]; 95% in test [6]; 99% in test [9]; 94% in test [12]; 93% in test [13]; 98% in test [14]. In test [15], the Activity turned out to be 98%.

As for `CC(C)[C@H](NC(=O)C(=O)CCCCc1ccc(-c2ccccc2)cc1)C(=O)O`, the inhibition – broadly, the percentage by which the read-out fell short of the control – in [16] was 50%; in [17], 54%; in test [18], 30%; in test [19], 21%.

For `CC(C)[C@H](NC(=O)C(=O)c1ccc2ccccc2c1)C(=O)O`, the inhibition in test [16] came out at 53%; in [17], 56%; in [18], 50%; in test [19] it was 50%.

For the compound `CC(C)[C@H](NC(=O)C(=O)CCCCc1ccccc1)C(=O)O`, the inhibition amounted to 40% in test [16], 40% in test [17], 56% in test [18] and 11% in test [19].

For the compound `CCCCCCCCCCCCCCC(=O)C(=O)NC(C)(C)C(=O)O`, the inhibition in test [1] and in test [2] was below 25% in each case.

Take `CCCCCCCCCCCCCCC(=O)C(=O)N[C@@H](C)C(=O)O`: the inhibition in [1] and in test [2] was below 25% in each case.

Regarding `CC(C)[C@H](NC(=O)C(=O)CCCCc1ccc2ccccc2c1)C(=O)O`, the inhibition came out at 26% in test [16], 51% in test [17], 20% in test [18] and 27% in test [19].
